# Values quoted from earlier work in US20190185438A1 (Tonix Pharmaceuticals Holding Corp., priority 2016, published 2019).
# Like-named read-outs stand apart in the source and are kept apart here. Marks after values point to notes of the source that are not given here.
# Experiments:
# [1] = test system: patients with fibromyalgia; settings: 8 weeks
# [2] = test system: patients with fibromyalgia
# [3] = 4 mg/day, week 14, 10-point scale, p <0.001
smiles,measurement,setting,value
"CCOc1ccccc1O[C@@H](c1ccccc1)[C@@H]1CNCCO1 [Esreboxetine, (2S)-2-[(S)-(2-ethoxyphenoxy)-phenylmethyl]morpholine]",Tolerability,[1],generally well-tolerated
same,Pain scores compared to placebo,[1]; 2 mg/day raised to 8 mg/day or maximum tolerated dose,statistically significant reductions
same,Patients discontinued due to adverse events,[1]; placebo 2.3%,8.2%
same,GFI score compared to placebo,"[2]; 4 mg/day and 8 mg/day, 14 weeks, P=0.001",significant improvement
same,"GFI score, treatment difference",[2]; [3],−0.64* (10-point scale)
same,"Pain score, treatment difference",[2]; [3],−0.74* (10-point scale)
same,"FIQ score, treatment difference","[2]; 4 mg/day, week 14, 100-point scale, p <0.001",−7.12* (100-point
same,"PGIC, much improved or very much improved","[2]; 4 mg/day, week 14, p 0.002",41.7%**
same,Tolerability,[2]; 14 weeks,generally well tolerated
same,PGIC score compared to placebo,"[2]; all doses (4, 8, 10 mg/day), 14 weeks, P≤0.007",significant improvement
same,FIQ score compared to placebo,"[2]; all doses (4, 8, 10 mg/day), 14 weeks, P≤0.023",significant improvement
same,Pain score compared to placebo,"[2]; all doses (4, 8, 10 mg/day), 14 weeks, P≤0.025",significant improvement
